Consider 15 compounds from PubChem BioAssay (NCI).

Where “and” joins values, the source holds several entries; their conditions need not be identical. Equal values may be shown once.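 Tested at 5 concentrations; 48 h exposure; 96-well plates; endpoints linearly interpolated, else capped at highest concentration. Abbreviation: GI50, concentration required for 50% inhibition of growth. TGI marks complete inhibition of growth.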

Test systems include HCT-15 colon; T-47D breast; NCI/ADR-RES ovarian; MDA-MB-231 breast; BT-549 breast.
Common to all, as to test: inhibition of tumour cell growth, NCI panel, 48 h

Consider `COc1ncnc(C2CC2)c1-c1ncc2cnn(Cc3ccc(-c4nc(C(F)(F)F)cn4C(C)C)cc3)c2n1`, for which the GI50 with HCT-15 colon was 17 µM; in the assay with T-47D breast, 10.6 µM; with NCI/ADR-RES ovarian, 15.6 µM; with MDA-MB-231 breast it was 22.9 µM; with BT-549 breast, 21 µM. Also, the TGI is 90.7 µM with HCT-15 colon; 85.2 µM in the assay with T-47D breast; 82.6 µM in the assay with NCI/ADR-RES ovarian; greater than 100 µM with MDA-MB-231 breast; 80.5 µM with BT-549 breast.
As to `Oc1ccc(Cl)cc1Cc1cc(Cl)cc(Cl)c1O`, the GI50 is 4.18 µM in the assay on HCT-15 colon; 2.47 µM with T-47D breast; 3.29 µM in the assay on NCI/ADR-RES ovarian; 7.92 µM in the assay on MDA-MB-231 breast; 3.32 µM in the assay on BT-549 breast. The TGI in the assay with HCT-15 colon is 23.5 µM; with T-47D breast it was 8.68 µM; in the assay with NCI/ADR-RES ovarian, 10 µM; in the assay on MDA-MB-231 breast, 48.1 µM; with BT-549 breast, 11.9 µM.
On to `OCCN1CN(CCO)CN(c2nc(N3CN(CCO)CN(CCO)C3)nc(N3CN(CCO)CN(CCO)C3)n2)C1`, for which the GI50 in the assay on T-47D breast is 1.06 ng/mL; in the assay on NCI/ADR-RES ovarian it was 0.867 ng/mL; in the assay with MDA-MB-231 breast, 0.776 ng/mL. Further, the TGI with T-47D breast was 4.92 ng/mL; in the assay on NCI/ADR-RES ovarian it was 3.98 ng/mL; with MDA-MB-231 breast it was 1.83 ng/mL; in the assay with BT-549 breast, 1.55 ng/mL.
As to `CNCCNc1c2c(c(NCCNC)c3c(CN(C)C)c[nH]c13)C(=O)c1ccccc1C2=O`, the GI50 in the assay on HCT-15 colon is 5.7 µM; in the assay on T-47D breast, 32 µM; in the assay with NCI/ADR-RES ovarian, 12.7 µM; with MDA-MB-231 breast, 0.486 µM; in the assay with BT-549 breast it was 6.04 µM. The TGI was 20.5 µM in the assay with HCT-15 colon; greater than 57.1 µM in the assay on T-47D breast; 40.2 µM with NCI/ADR-RES ovarian; 8.31 µM with MDA-MB-231 breast; 14.4 µM in the assay on BT-549 breast.
As to `C/C(=C\CCc1ccoc1)CC/C=C(\C)CCCC1=CC(=O)OC1`, the GI50 in the assay with HCT-15 colon was 4.47 µM; in the assay with T-47D breast, 2.27 µM; in the assay with NCI/ADR-RES ovarian it was 5.42 µM; in the assay on MDA-MB-231 breast, 5.97 µM; in the assay with BT-549 breast it was 6.24 µM. In addition, the TGI came out at 20 µM with HCT-15 colon; 22.9 µM with T-47D breast; 31 µM with NCI/ADR-RES ovarian; 28.9 µM in the assay on MDA-MB-231 breast; 25.9 µM in the assay on BT-549 breast.
Consider `COc1ccc2c(c1)C(C)Cc1c(Cl)ncnc1N2C` (stereo not given), for which the GI50 with HCT-15 colon was 0.402 µM; in the assay with T-47D breast, 2.02 µM; in the assay with NCI/ADR-RES ovarian it was 0.388 µM; in the assay with MDA-MB-231 breast, 0.365 µM; with BT-549 breast it was 0.433 µM. Moreover, the TGI was greater than 32.3 µM in the assay on HCT-15 colon; 20.5 µM with T-47D breast; 11.2 µM in the assay on NCI/ADR-RES ovarian; 2.35 µM in the assay on MDA-MB-231 breast; 18.4 µM in the assay on BT-549 breast.
For `Cn1c(=O)c2c(nc(Nc3cc(=O)[nH]c(=O)[nH]3)n2Cc2ccccc2)n(C)c1=O`, the GI50 with HCT-15 colon was greater than 100 µM; in the assay on T-47D breast, greater than 100 µM; with NCI/ADR-RES ovarian, greater than 100 µM; in the assay on MDA-MB-231 breast, greater than 100 µM; with BT-549 breast, 69.4 µM. The TGI with HCT-15 colon, in the assay with T-47D breast, in the assay on NCI/ADR-RES ovarian, in the assay with MDA-MB-231 breast and in the assay with BT-549 breast was greater than 100 µM each time.
As for `C=C(C=O)C1CCC2(C(=O)O)CCC3(C)C(CCC4C5(C)CCC(O)C(C)(C)C5CCC43C)C12` (stereo not given), the GI50 was 1.65 µM in the assay with HCT-15 colon; 5.19 µM with T-47D breast; 1.79 µM in the assay with NCI/ADR-RES ovarian; 4.92 µM in the assay on MDA-MB-231 breast; 1.68 µM with BT-549 breast. The TGI with HCT-15 colon is 4.47 µM; in the assay with T-47D breast, 34.1 µM; in the assay with NCI/ADR-RES ovarian it was 5.57 µM; in the assay with MDA-MB-231 breast, 50.4 µM; in the assay with BT-549 breast it was 6.67 µM.
As to `C=CC1CC12C(=O)C1OC2(C)C2C(=O)c3cc4ccccc4cc3C(=O)C12` (stereo not given), the GI50 in the assay on HCT-15 colon is 11.9 µM; in the assay on T-47D breast it was 23.1 µM; in the assay on NCI/ADR-RES ovarian it was 26.9 µM; in the assay with MDA-MB-231 breast, 16 µM; in the assay with BT-549 breast, 25 µM. Further, the TGI is 42.7 µM in the assay with HCT-15 colon; greater than 100 µM with T-47D breast; 95.4 µM in the assay with NCI/ADR-RES ovarian; 46.4 µM in the assay with MDA-MB-231 breast; 62.6 µM in the assay on BT-549 breast.
`CC[C@]12C=CCN3CC[C@@]4(c5ccc(OC)cc5N(C)[C@H]4[C@@](O)(C(=O)OC)[C@@H]1OC(=O)CCC[P+](c1ccccc1)(c1ccccc1)c1ccccc1)[C@@H]32`: the GI50 is 8.69 µM and 14.2 µM in the assay on HCT-15 colon; 0.29 µM and 0.224 µM in the assay on T-47D breast; > 50 µM and 68.9 µM with NCI/ADR-RES ovarian; 0.467 µM and 0.525 µM in the assay on MDA-MB-231 breast; 0.284 µM and 0.234 µM in the assay with BT-549 breast. Besides, the TGI was 20.7 µM and 28.8 µM in the assay on HCT-15 colon; 6.56 µM and 0.977 µM with T-47D breast; greater than 100 µM with NCI/ADR-RES ovarian; 1.85 µM and 2.25 µM with MDA-MB-231 breast; 1.86 µM and 1.6 µM with BT-549 breast.
For the compound `C=C(C)[C@@]12OC3(/C=C/C=C/CCCCC)O[C@@H]1[C@@H]1[C@@H]4O[C@]4(CO)[C@@H](O)[C@]4(O)C(=O)C(C)=C[C@H]4[C@@]1(O3)[C@H](C)[C@H]2OC(=O)c1ccccc1`, the GI50 was 1.42 µM in the assay on HCT-15 colon; 2.2 µM in the assay on T-47D breast; 3.13 µM in the assay on NCI/ADR-RES ovarian; 0.118 µM with MDA-MB-231 breast; 1.66 µM in the assay with BT-549 breast. Moreover, the TGI in the assay with HCT-15 colon came out at 2.9 µM; with T-47D breast, 7.25 µM; in the assay with NCI/ADR-RES ovarian, 8.9 µM; with MDA-MB-231 breast, 2.27 µM; with BT-549 breast it was 4.38 µM.
Turning to `COc1ccc(N(C)c2ncnc3occ(C)c23)cc1`, the results for the GI50 with HCT-15 colon, with NCI/ADR-RES ovarian and in the assay with BT-549 breast were less than 0.01 µM, less than 0.01 µM and less than 0.0244 µM, respectively. Moreover, the TGI was greater than 100 µM with NCI/ADR-RES ovarian and greater than 62.4 µM in the assay with BT-549 breast.
`O=C(OCc1ccc2cccc(O)c2n1)N1CCN(C(=O)c2cc3cc(F)ccc3[nH]2)CC1`: the GI50 was 0.452 µM in the assay on HCT-15 colon, 1.76 µM in the assay on NCI/ADR-RES ovarian, 0.966 µM in the assay on MDA-MB-231 breast and 1 µM with BT-549 breast. Moreover, the TGI in the assay with HCT-15 colon was 1.8 µM; in the assay with NCI/ADR-RES ovarian, 6.07 µM; in the assay with MDA-MB-231 breast it was 2.23 µM; in the assay with BT-549 breast, 2.21 µM.
As to `NC(=NCCCOc1ccc(Cl)cc1)Nc1ccc(C(F)(F)F)cc1`, the GI50 is 1.72 µM in the assay with HCT-15 colon, 2.35 µM in the assay on NCI/ADR-RES ovarian and 2.32 µM with BT-549 breast. The TGI was found to be 4.15 µM in the assay with HCT-15 colon, 7.27 µM in the assay on NCI/ADR-RES ovarian and 6.31 µM with BT-549 breast.
In the case of `CCCCCCCCCC/C=C/CC(=O)SCCNC(=O)CCNC(=O)[C@@H](O)C(C)(C)COP(=O)(O)OP(=O)(O)OCC1OC(n2cnc3c(N)ncnc32)C(O)C1OP(=O)(O)O` (stereo not given in full), the TGI in the assay with HCT-15 colon, in the assay with T-47D breast, with NCI/ADR-RES ovarian and in the assay with MDA-MB-231 breast was greater than 10 µM throughout.
